Measured values: publication PMC9967118, “Influence of Mutations of Conserved Arginines on Neuropeptide Binding in the DPP III Active Site” (Molecules, 2023)
Like-named read-outs stand apart in the source and are kept apart here. Where no end group is shown, it is not given here.

Key:
[1] = biological target: T1, Human DPP3 wild-type (WT) (Homo sapiens, UniProt Q9NY33); assay: Inhibition of DPP III catalyzed hydrolysis of Arg2-2NA, wild-type enzyme; assay type: biochemical
T1 construct: made in house; host or cells: E. coli
T1 sequence (Q9NY33 1-737): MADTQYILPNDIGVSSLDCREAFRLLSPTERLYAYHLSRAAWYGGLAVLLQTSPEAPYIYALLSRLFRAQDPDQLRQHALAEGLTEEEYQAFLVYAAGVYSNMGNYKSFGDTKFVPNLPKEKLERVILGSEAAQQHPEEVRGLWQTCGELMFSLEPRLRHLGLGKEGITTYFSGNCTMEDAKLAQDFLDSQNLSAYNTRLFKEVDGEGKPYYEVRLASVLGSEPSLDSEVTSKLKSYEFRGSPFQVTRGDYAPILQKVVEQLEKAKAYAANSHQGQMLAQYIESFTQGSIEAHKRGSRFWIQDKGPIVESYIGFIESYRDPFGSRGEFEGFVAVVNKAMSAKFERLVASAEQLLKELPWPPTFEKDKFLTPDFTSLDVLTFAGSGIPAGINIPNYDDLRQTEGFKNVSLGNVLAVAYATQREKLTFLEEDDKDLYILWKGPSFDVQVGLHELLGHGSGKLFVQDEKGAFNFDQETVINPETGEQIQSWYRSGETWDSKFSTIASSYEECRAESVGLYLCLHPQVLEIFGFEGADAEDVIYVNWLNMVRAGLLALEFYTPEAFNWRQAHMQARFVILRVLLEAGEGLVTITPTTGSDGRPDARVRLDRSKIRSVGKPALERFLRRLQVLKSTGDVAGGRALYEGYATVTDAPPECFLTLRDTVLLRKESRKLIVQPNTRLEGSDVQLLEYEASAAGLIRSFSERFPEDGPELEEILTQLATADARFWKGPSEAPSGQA
Protocol: (§1) Human DPP3 wild-type (WT) and variants R669A and R669M were expressed in E. coli and purified using IMAC, as described in detail recently. Briefly, variants were prepared using a QuikChange II site-directed mutagenesis kit (Agilent Technologies, Santa Clara, CA, USA) while following the manufacturer’s instructions, with the hDPP3 gene on a pET21a plasmid as template. Complementary primer pairs were ordered from Macrogen Europe (The Netherlands) with the following sequences:
(§2) Proteins were expressed in E. coli for approximately 20 h at 18 °C, shaken at 120 rpm, and paired with 0.25 mM IPTG as an expression inductor. Cell pellets were lysed with lysosyme and with sonication; the lysate was then purified with DNAse I and through centrifugation, and affinity chromatography was performed on a Rotigarose His/Ni column. Lysis, wash, and elution buffers contained imidazole at concentrations of 10 mM, 20 mM, and 300 mM, respectively, and all buffers contained 50 mM Tris pH = 8.0, 300 mM NaCl. Fractions were pooled based on protein concentration (determined by using a BioDrop microvolume spectrophotometer) and purity (assessed by SDS-PAGE), and they were desalted on a PD-10 column with 20 mM Tris-Cl buffer, pH = 7.5. Aliquots were frozen and stored at −80 °C.
(§3) Enzyme kinetics were measured using an Agilent Cary Eclipse fluorescence spectrophotometer (Agilent Technologies, Santa Clara, CA, USA) with Arg2-2NA as a substrate analog and fluorescent 2NA as the product of the peptidase reaction. The assay has been described in detail previously. Arg2-2NA and peptide in 20 mM Tris-Cl buffer pH = 7.4 were pre-incubated at 25 °C for 2 min before the reaction was started by adding the enzyme into the cuvette. Substrate concentrations ranged from 0.25 to 100 μM. The peptide (inhibitor) concentrations were chosen so the output could be easily measured. […] Three peptide concentrations were used for each peptide. The enzyme concentration was 1 nM in all measurements.

Human DPP3 variant R669A [2] = biological target: T2, Human DPP3 variant R669A (Homo sapiens, UniProt Q9NY33, R669A); assay: Inhibition of DPP III catalyzed hydrolysis of Arg2-2NA, R669A variant; assay type: biochemical
T2 construct: made in house; host or cells: E. coli
T2 sequence (Q9NY33 1-737 R669A): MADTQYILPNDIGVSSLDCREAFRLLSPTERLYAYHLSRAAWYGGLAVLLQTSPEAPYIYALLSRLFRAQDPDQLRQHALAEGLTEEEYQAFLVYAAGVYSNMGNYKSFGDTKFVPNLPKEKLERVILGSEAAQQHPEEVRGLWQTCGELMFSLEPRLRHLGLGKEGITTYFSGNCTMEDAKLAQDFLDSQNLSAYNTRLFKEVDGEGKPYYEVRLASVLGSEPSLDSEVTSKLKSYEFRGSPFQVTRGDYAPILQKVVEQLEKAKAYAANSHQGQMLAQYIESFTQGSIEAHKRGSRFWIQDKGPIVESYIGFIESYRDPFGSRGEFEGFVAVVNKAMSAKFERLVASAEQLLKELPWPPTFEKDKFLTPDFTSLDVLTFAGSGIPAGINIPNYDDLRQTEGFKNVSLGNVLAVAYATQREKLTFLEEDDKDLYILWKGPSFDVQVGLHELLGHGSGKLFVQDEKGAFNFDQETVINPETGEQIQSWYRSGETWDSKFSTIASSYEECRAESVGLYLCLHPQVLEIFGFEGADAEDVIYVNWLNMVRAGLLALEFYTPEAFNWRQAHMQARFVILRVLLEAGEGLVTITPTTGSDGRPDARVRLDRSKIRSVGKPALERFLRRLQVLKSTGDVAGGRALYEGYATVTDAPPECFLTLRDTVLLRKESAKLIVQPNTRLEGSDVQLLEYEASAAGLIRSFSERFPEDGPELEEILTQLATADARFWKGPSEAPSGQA
Protocol: as §1, §2, §3

Human DPP3 variant R669M [3] = biological target: T3, Human DPP3 variant R669M (Homo sapiens, UniProt Q9NY33, R669M); assay: Inhibition of DPP III catalyzed hydrolysis of Arg2-2NA, R669M variant; assay type: biochemical
T3 construct: made in house; host or cells: E. coli
T3 sequence (Q9NY33 1-737 R669M): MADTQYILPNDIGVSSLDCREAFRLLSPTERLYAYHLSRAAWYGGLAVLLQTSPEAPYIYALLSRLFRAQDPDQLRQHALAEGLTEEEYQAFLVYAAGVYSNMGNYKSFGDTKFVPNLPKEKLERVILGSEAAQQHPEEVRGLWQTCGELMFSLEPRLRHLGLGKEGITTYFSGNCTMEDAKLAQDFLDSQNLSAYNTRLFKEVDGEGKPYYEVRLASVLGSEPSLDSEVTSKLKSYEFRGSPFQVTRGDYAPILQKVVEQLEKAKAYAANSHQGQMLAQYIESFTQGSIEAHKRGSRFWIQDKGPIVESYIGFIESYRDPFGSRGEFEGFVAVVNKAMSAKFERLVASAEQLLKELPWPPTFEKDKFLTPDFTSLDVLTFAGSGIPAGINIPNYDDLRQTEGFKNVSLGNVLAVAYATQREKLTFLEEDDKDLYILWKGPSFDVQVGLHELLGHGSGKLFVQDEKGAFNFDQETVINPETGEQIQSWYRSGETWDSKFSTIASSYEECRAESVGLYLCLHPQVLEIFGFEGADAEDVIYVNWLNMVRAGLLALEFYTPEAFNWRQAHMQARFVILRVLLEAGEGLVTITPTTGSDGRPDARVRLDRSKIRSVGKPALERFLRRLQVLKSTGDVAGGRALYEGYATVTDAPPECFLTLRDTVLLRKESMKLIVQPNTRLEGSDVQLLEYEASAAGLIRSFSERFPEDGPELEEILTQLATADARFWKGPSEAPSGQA
Protocol: as §1, §2, §3

[4] = biological target: T1, Human DPP3 wild-type (WT); assay: Michaelis–Menten test for the hydrolysis of Arg2-2NA, wild-type enzyme; assay type: biochemical; details: enzyme 1 nM, 20 mM Tris-Cl pH 7.4, 25 °C, best fit ± standard error
Protocol: as §1
(§4) Proteins were expressed in E. coli for approximately 20 h at 18 °C, shaken at 120 rpm, and paired with 0.25 mM IPTG as an expression inductor. Cell pellets were lysed with lysosyme and with sonication; the lysate was then purified with DNAse I and through centrifugation, and affinity chromatography was performed on a Rotigarose His/Ni column. […] Fractions were pooled based on protein concentration (determined by using a BioDrop microvolume spectrophotometer) and purity (assessed by SDS-PAGE), and they were desalted on a PD-10 column with 20 mM Tris-Cl buffer, pH = 7.5. […]
(§5) Enzyme kinetics were measured using an Agilent Cary Eclipse fluorescence spectrophotometer (Agilent Technologies, Santa Clara, CA, USA) with Arg2-2NA as a substrate analog and fluorescent 2NA as the product of the peptidase reaction. […] The peptide (inhibitor) concentrations were chosen so the output could be easily measured. […]

Human DPP3 variant R669M [5] = biological target: T3, Human DPP3 variant R669M; assay: Michaelis–Menten test for the hydrolysis of Arg2-2NA, R669M variant; assay type: biochemical; details: enzyme 1 nM, 20 mM Tris-Cl pH 7.4, 25 °C, best fit ± standard error
Protocol: as §1, §4, §5

Human DPP3 variant R669A [6] = biological target: T2, Human DPP3 variant R669A; assay: Michaelis–Menten test for the hydrolysis of Arg2-2NA, R669A variant; assay type: biochemical; details: enzyme 1 nM, 20 mM Tris-Cl pH 7.4, 25 °C, best fit ± standard error
Protocol: as §1, §4, §5

DPP III = details: human renal epithelial cells; cited from earlier work
Text: (§6) Dipeptidyl peptidase III (DPP III, EC 3.4.14.4) is a monozinc metallopeptidase that hydrolyzes dipeptides from the N-terminus of its substrates consisting of three or more amino acids. DPP III is the only member of the M49 metallopeptidase family and the only metalloenzyme among dipeptidyl peptidases. This two-domain exopeptidase is broadly distributed in human tissues, where it participates in the final stages of protein turnover.

human DPP III (hDPP III) = tested on: human DPP III (hDPP III); parameters: method as in 2 sources, one per row (each row's own in cited_ref): ref 17 = [17]; PMID 35163780; doi:10.3390/ijms23031858; 17. Tomić A. Tomić S. Demystifying DPP III Catalyzed Peptide Hydrolysis—Computational Study of the Complete Catalytic Cycle of Human DPP III Catalyzed Tynorphin Hydrolysis Int. J. Mol. Sci. 2022 23 18 ||| ref 18 = [18]; PMID 36116590; doi:10.1016/j.ijbiomac.2022.09.119; 18. Karačić Z. Šupljika F. Tomić A. Brkljačić L. Paić A.T. Ćehić M. Tomić S. Neuropeptides, Substrates and Inhibitors of Human Dipeptidyl Peptidase III, Experimental and Computational Study—A New Subs; details: computational and experimental study of neuropeptides; cited from earlier work
Text: Despite the efforts of numerous scientists, knowledge about the role that DPP III might play in various physiological processes is still unclear. […] In this and in QM/MM studies ...

[7] = tested on: angiotensin II-infused hypertensive mice; details: cited from earlier work
Text: as §6

[8] = substrate 0.25–100 μM, fluorescence of 2NA
[9] = WT hDPP III 1 nM, substrate Arg2-2NA 0.25–100 μM, 20 mM Tris-Cl pH 7.4, 25 °C, 2 min pre-incubation, fluorescence of 2NA, competitive inhibition, best fit ± standard error, inhibitor tynorphin 1–50 nM, valorphin 15–150 nM
[10] = R669M hDPP III 1 nM, substrate Arg2-2NA 0.25–100 μM, 20 mM Tris-Cl pH 7.4, 25 °C, 2 min pre-incubation, fluorescence of 2NA, competitive inhibition, best fit ± standard error, tynorphin 1–5 μM, valorphin 0.75–11.2 μM

CC(C)C[C@H](NC(=O)[C@H](Cc1ccccc1)NC(=O)CNC(=O)CNC(=O)[C@@H](N)Cc1ccc(O)cc1)C(=O)O [Leu-enkephalin]
Ki [1]: 10400 ± 1400 nM | Ki (Human DPP3 variant R669A [2]): 52000 ± 5300 nM | Ki (Human DPP3 variant R669M [3]): 58000 ± 7000 nM | effects of the R669M and R669A mutations on the Ki (Human DPP3 variant R669M [3]; R669M versus R669A): the same

Arg2-2NA
kcat [4]: 3.74 ± 0.07 s⁻¹ | Km [4, 8]: 7.8 ± 0.6 µM | kcat (Human DPP3 variant R669M [5]): 2.26 ± 0.03 s⁻¹ | Km (Human DPP3 variant R669M [5]; [8]): 2.8 ± 0.2 µM | effect of mutation of R669 to Ala or Met on inhibitory properties / binding (Human DPP3 variant R669A [2]; R669A or R669M versus WT, inhibitory assays): small | kcat (Human DPP3 variant R669A [6]): 2.24 ± 0.05 s⁻¹ | Km (Human DPP3 variant R669A [6]; [8]): 3.4 ± 0.3 µM

VVYPW [tynorphin]
Ki [1, 9]: 11.2 ± 0.8 nM | Ki (Human DPP3 variant R669A [2]): 328 ± 25 nM | Ki (Human DPP3 variant R669M [3]; [10]): 102 ± 16 nM

VVYPWTQ [valorphin]
Ki [1, 9]: 36.5 ± 2.9 nM | Ki (Human DPP3 variant R669A [2]): 1210 ± 224 nM | Ki (Human DPP3 variant R669M [3]; [10]): 406 ± 33 nM

angiotensin (1–7): peptide degraded by DPP III in human renal epithelial cells (DRVYIHP; Angiotensin 1-7; UniProt P01019 25-31, looked up)
degradation by DPP III (DPP III): DPP III degrades angiotensin (1–7)

β-casomorphin
in vitro substrate identification / substrate class with hDPP III (human DPP III (hDPP III)): in vitro substrates of hDPP III

B1: DPP III: zinc exopeptidase (EC 3.4.14.4), M49 family (protein, UniProt Q9NY33 2-737, looked up)
Dipeptidyl peptidase 3: ADTQYILPNDIGVSSLDCREAFRLLSPTERLYAYHLSRAAWYGGLAVLLQTSPEAPYIYALLSRLFRAQDPDQLRQHALAEGLTEEEYQAFLVYAAGVYSNMGNYKSFGDTKFVPNLPKEKLERVILGSEAAQQHPEEVRGLWQTCGELMFSLEPRLRHLGLGKEGITTYFSGNCTMEDAKLAQDFLDSQNLSAYNTRLFKEVDGEGKPYYEVRLASVLGSEPSLDSEVTSKLKSYEFRGSPFQVTRGDYAPILQKVVEQLEKAKAYAANSHQGQMLAQYIESFTQGSIEAHKRGSRFWIQDKGPIVESYIGFIESYRDPFGSRGEFEGFVAVVNKAMSAKFERLVASAEQLLKELPWPPTFEKDKFLTPDFTSLDVLTFAGSGIPAGINIPNYDDLRQTEGFKNVSLGNVLAVAYATQREKLTFLEEDDKDLYILWKGPSFDVQVGLHELLGHGSGKLFVQDEKGAFNFDQETVINPETGEQIQSWYRSGETWDSKFSTIASSYEECRAESVGLYLCLHPQVLEIFGFEGADAEDVIYVNWLNMVRAGLLALEFYTPEAFNWRQAHMQARFVILRVLLEAGEGLVTITPTTGSDGRPDARVRLDRSKIRSVGKPALERFLRRLQVLKSTGDVAGGRALYEGYATVTDAPPECFLTLRDTVLLRKESRKLIVQPNTRLEGSDVQLLEYEASAAGLIRSFSERFPEDGPELEEILTQLATADARFWKGPSEAPSGQA
blood pressure [7]: lowering blood pressure
